Active and inactive are the calls of the source. A value given as a limit tells only on which side of the number the result lay.

Assay [1] concerns the target T1, E3 ubiquitin-protein ligase XIAP (Homo sapiens, UniProt P98170). Description: Counter Screen using XIAP-Bir3 for Chemical Antagonists of Bir1/2 domains of IAP-family anti-apoptotic proteins. [Related pubchem assays (depositor defined):AID1018, AID1449, AID1514, AID1638, AID1749, AID1750, AID488957, AID488963]. For orientation: A counterscreen serves to expose hits that act by an unwanted route or on another target.

The target in assay [2] is T2, Heat shock factor protein 1 (Mus musculus, UniProt P38532).
T2 sequence (P38532 whole entry): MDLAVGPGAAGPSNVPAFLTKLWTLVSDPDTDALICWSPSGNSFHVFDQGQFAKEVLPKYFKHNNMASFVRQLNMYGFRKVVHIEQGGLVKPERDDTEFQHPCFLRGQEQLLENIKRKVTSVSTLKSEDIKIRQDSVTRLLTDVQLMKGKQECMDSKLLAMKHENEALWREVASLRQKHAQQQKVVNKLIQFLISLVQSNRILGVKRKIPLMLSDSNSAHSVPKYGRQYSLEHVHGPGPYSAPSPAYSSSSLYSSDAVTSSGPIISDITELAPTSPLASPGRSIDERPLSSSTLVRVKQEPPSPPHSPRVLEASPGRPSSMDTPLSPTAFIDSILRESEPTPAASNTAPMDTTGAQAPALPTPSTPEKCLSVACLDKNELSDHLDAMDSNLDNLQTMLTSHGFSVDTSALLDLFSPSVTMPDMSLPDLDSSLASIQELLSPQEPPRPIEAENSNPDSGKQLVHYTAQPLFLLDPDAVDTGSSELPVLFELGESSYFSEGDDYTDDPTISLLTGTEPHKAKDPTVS
As to the kind of experiment: decrease of HSF1-responsive luciferase luminescence – cell-based, NIH3T3, dose retest, confirmation (AID 2382).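 Also: NIH3T3 fibroblasts with HSF1-driven luciferase reporter stressed by proteasome inhibitor MG132; luminescence from HSF1-driven luciferase expression after 8 hours of MG132 stress.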 The class given is functional.

Assay [3] deals with T1, E3 ubiquitin-protein ligase XIAP. As to the kind of experiment: small molecules displacing peptide from XIAP – biochemical, IAP family, fluorescence polarization (AID 1018). In kind it is functional. On the technique in general: In fluorescence polarisation assays a small probe gives low polarisation when free and higher when bound to something large.
The target of assay [4] is T3, X-box-binding protein 1 (Homo sapiens, UniProt P17861).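 Also: confirmatory dose-response counter-screen serving a CHOP assay.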
T3 sequence (P17861 whole entry): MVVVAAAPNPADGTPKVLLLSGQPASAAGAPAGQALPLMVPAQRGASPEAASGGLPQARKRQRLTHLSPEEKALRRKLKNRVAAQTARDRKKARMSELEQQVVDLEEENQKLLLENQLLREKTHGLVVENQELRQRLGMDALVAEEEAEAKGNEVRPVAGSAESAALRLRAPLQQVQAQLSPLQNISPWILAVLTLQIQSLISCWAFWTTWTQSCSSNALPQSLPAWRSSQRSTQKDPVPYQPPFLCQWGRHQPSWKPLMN
In kind it is functional, Cricetulus griseus.

The target in assay [5] is T4, Aryl hydrocarbon receptor (Homo sapiens, UniProt P35869).
T4 sequence (P35869 whole entry): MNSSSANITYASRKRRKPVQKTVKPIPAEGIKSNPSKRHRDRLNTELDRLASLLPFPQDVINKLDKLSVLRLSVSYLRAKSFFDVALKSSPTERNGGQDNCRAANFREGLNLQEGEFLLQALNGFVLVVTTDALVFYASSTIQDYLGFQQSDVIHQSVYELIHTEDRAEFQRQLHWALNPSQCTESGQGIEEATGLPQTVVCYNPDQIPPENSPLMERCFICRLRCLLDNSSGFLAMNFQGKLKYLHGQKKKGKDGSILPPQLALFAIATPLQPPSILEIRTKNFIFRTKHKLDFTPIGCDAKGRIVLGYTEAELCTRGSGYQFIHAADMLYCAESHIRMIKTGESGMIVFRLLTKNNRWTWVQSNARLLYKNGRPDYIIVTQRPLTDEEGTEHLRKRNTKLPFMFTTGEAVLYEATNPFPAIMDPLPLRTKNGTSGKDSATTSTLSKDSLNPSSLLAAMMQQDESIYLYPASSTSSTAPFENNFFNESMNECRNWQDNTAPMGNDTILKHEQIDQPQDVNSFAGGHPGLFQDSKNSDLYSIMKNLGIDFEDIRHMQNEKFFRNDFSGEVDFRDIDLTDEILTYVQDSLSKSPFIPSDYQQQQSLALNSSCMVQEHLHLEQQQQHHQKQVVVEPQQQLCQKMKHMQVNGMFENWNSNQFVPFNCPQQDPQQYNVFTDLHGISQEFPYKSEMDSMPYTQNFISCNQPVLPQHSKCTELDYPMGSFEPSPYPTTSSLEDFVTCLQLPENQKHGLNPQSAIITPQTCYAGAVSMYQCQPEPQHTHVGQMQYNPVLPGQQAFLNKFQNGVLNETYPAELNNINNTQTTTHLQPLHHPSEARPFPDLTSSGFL
As to the kind of experiment: Luminescence-based cell-based high throughput dose response assay for activators of the Aryl Hydrocarbon Receptor (AHR). [Related pubchem assays: 2796 (Primary screen (AHR activators in singlicate)), 2845 (Confirmation screen (AHR activators in triplicate)), 434939 (Counterscreen (PXR activators in triplicate)), 2804 (Summary (AHR activators))]. In kind it is ADME.

Assay [6] concerns the target T5, Caspase-6 (Homo sapiens, UniProt P55212).
T5 sequence (P55212 whole entry): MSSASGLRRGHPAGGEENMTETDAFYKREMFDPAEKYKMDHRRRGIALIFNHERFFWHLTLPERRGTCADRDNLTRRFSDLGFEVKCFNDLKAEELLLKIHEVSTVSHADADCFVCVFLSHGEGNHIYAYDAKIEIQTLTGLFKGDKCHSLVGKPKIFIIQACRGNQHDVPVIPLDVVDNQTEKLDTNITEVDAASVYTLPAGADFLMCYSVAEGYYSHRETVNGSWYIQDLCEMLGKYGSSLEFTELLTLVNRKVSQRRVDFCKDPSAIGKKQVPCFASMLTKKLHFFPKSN
Description: inhibition of CASP6 peptide cleavage – biochemical, VEID-R110 fluorescence, cherry-pick, dose response (AID 720632).

The subject of assay [7] is Streptococcus sp. 'group A'. Description: Streptococcus pyogenes SK(-)GAS viability under kanamycin – luminescence, BacTiterGlo, confirmation, counter-screen for streptokinase expression inhibitor project, dose response (AID 1900). In kind it is functional, organism-based.
Assay [8] relates to Streptococcus. As to the kind of experiment: GAS UMAA2166 growth inhibition – luminescence, BacTiterGlo, counter-screen for streptokinase expression inhibitor project, dose response (AID 1915).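 Also: potency for reduction of bacterial viability or growth.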 In kind it is functional, organism-based.

T1 sequence (P98170 whole entry): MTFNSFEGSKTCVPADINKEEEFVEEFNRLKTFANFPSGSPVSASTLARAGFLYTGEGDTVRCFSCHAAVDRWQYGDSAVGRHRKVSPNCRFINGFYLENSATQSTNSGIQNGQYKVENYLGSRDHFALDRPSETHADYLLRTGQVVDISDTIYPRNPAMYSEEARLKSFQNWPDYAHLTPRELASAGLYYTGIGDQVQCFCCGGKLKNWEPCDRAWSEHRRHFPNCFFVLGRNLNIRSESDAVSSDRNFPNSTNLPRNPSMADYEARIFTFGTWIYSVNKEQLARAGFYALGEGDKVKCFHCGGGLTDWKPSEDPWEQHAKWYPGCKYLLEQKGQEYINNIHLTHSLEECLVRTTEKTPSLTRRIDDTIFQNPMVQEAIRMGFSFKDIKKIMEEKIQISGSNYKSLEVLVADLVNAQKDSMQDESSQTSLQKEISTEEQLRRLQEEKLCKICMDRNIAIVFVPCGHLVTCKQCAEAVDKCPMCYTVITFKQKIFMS

As usually defined, the IC50 is the midpoint of a concentration-inhibition curve. By EC50 is commonly meant the concentration giving half of the maximal effect. Regarding `CC(C)CC(NC(=O)c1ccco1)C(=O)Nc1ccc2c(c1)OCCO2` (stereo unspecified), the IC50 was > 100 µM (inactive) in assay [1] and > 100 µM (not active) in assay [3]. Besides, the EC50 in assay [2] was 11.3 µM (active).

For the compound `CN1CCN(c2ccccc2NC(=O)c2ccc(-c3cccc([N+](=O)[O-])c3)o2)CC1`, the IC50 in assay [1] is > 100 µM (inactive); in assay [3], > 100 µM (not active).

Regarding `Cn1c(-c2cccc(OCc3ccccc3)c2)nc2c1c(=O)[nH]c(=O)n2Cc1ccccc1`, in assay [4], the “Absolute IC50 (XBP1)” value worked out at 10 µM.

With `Cc1cc(S(=O)(=O)N2CCN(Cc3ccccc3)CC2)c(C)s1`, the IC50 in assay [1] was > 100 µM (inactive); in assay [3], > 100 µM (not active).

Turning to `COC(=O)c1ccccc1NC(=O)Cn1ccnc1`, in assay [5], the EC50 was 2.18 µM (active).

By AC50 is commonly meant the midpoint of the concentration-response curve, whichever way the signal moves. For the compound `O=C(O)COn1c(-c2ccccc2)nc2ccc([N+](=O)[O-])cc21`, the EC50 in assay [5] was 4.82 µM (active). Besides, in assay [6], the AC50 was 5.23 µM (active).

Regarding `CCCC(=O)Nc1nn(C)c2nc3cc(C)ccc3cc12`, the EC50 in assay [5] was 0.458 µM (active).

Turning to `CC[C@H]1OC(=O)[C@H](C)[C@@H](O[C@H]2C[C@@](C)(OC)[C@@H](O)[C@H](C)O2)[C@H](C)[C@@H](O[C@@H]2O[C@H](C)C[C@H](N(C)C)[C@H]2O)[C@](C)(O)C[C@@H](C)[C@@H]2N[C@@H](COCCOC)O[C@H]([C@H]2C)[C@]1(C)O` [DIRITHROMYCIN], the IC50 in assay [1] was > 100 µM (inactive); in assay [3] it was > 100 µM (not active). Moreover, the EC50 in assay [7] was < 0.06 µM (active); in assay [8], 0.117 µM (active).

Values taken from ChEMBL document CHEMBL1201862, “PubChem BioAssay data set” (2004).
